From ChEMBL document CHEMBL1139023, “The reversed binding of beta-phenethylamine inhibitors of DPP-IV: X-ray structures and properties of novel fragment and elaborated inhibitors” (Bioorg Med Chem Lett, 2006)

Columns and labels:
[1] = biological target: Dipeptidyl peptidase 4 (Homo sapiens, UniProt P27487); assay: (§1) Inhibition of DPP4 by continuous fluorimetric assay
[2] = biological target: Dipeptidyl peptidase 4 (Sus scrofa) (UniProt P22411); assay: Inhibition of DPP4 by continuous fluorimetric assay at 100 nM
Sequence of Dipeptidyl peptidase 4 (Sus scrofa) (P22411 whole entry, looked up): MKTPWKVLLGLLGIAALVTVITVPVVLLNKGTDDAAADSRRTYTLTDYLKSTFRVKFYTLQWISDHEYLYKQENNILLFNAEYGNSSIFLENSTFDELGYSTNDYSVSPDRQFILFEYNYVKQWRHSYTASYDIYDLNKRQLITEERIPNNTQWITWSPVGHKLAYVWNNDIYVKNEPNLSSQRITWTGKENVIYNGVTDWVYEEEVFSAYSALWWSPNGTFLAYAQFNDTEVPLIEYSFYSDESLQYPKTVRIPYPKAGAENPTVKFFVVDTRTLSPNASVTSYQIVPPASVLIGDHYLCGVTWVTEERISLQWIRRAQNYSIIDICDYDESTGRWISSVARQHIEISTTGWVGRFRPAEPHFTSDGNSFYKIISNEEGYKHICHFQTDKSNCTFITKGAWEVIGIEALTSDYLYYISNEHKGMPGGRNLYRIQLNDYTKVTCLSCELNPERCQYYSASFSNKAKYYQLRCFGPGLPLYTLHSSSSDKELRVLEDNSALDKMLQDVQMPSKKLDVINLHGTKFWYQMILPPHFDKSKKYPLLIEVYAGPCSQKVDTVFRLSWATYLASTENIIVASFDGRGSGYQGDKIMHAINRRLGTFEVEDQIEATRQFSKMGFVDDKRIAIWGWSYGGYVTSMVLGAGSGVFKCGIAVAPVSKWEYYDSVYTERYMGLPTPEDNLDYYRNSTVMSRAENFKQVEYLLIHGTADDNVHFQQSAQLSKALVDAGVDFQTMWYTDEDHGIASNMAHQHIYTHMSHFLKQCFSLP

[3] = biological target: Dipeptidyl peptidase 4 (Sus scrofa, UniProt P22411); assay: as §1
Sequence of Dipeptidyl peptidase 4 (Sus scrofa, UniProt P22411) (P22411 whole entry): as the sequence (P22411 whole entry, looked up) above

Sequence of Dipeptidyl peptidase 4 (Homo sapiens, UniProt P27487) (P27487 whole entry): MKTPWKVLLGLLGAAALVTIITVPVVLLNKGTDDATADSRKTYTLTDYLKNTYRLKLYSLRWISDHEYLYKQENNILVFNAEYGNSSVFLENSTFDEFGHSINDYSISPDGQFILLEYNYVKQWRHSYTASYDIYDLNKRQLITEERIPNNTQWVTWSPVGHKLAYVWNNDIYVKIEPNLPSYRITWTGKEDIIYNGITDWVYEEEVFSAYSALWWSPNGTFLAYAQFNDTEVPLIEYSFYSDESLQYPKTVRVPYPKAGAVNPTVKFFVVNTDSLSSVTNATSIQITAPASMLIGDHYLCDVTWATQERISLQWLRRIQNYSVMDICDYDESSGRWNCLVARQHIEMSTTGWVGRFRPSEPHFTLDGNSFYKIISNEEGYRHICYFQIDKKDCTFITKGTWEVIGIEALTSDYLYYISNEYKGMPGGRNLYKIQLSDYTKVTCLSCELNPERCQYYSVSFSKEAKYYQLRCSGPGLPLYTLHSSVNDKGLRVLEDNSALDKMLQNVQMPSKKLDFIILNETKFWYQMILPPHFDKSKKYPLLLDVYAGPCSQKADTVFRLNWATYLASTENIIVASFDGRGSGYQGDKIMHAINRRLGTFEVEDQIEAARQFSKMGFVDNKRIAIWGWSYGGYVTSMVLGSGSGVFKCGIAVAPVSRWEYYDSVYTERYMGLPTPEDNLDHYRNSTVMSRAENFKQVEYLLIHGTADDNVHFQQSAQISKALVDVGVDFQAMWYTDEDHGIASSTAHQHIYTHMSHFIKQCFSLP

Compound | IC50 [1] [µM] | inhibition [2] [%] | IC50 [3] [µM]
NC(=O)[C@@H]1Cc2ccccc2CN1C(=O)C[C@H](N)Cc1ccccc1F | 0.023 | 60 | 
NCC(c1ccccc1Cl)N1CCOCC1 (stereo not given) |  |  | 46
N[C@@H](CC(=O)N1CCC[C@H]1CNC(=O)c1ccccc1)Cc1ccccc1F |  |  | 0.41
NCC1(c2ccccc2)CCCC1 |  |  | 30
